Test results taken from ChEMBL document CHEMBL1909046, “DrugMatrix in vitro pharmacology data”.

Experiments:
[1] = DRUGMATRIX: Purinergic P2X radioligand binding (ligand: [3H] alpha, beta-Methylene-ATP); type: cell membranes, Oryctolagus cuniculus, New Zealand albino, Urinary bladder, Membrane; conditions: Not Active = under 50% inhibition at 10 µM
[2] = DRUGMATRIX: Nicotinic Acetylcholine radioligand binding (ligand: [125I] Epibatidine); type: cell membranes, Membrane; conditions: imr-32; Not Active = under 50% inhibition at 10 µM
[3] = target: T1, Muscarinic acetylcholine receptor M5 (Homo sapiens, UniProt P08912); type: cell membranes, CHO-K1, Membrane; conditions: cho-k1; note: in other assays of this panel Not Active means under 50% inhibition at 10 µM
T1 sequence (P08912 whole entry): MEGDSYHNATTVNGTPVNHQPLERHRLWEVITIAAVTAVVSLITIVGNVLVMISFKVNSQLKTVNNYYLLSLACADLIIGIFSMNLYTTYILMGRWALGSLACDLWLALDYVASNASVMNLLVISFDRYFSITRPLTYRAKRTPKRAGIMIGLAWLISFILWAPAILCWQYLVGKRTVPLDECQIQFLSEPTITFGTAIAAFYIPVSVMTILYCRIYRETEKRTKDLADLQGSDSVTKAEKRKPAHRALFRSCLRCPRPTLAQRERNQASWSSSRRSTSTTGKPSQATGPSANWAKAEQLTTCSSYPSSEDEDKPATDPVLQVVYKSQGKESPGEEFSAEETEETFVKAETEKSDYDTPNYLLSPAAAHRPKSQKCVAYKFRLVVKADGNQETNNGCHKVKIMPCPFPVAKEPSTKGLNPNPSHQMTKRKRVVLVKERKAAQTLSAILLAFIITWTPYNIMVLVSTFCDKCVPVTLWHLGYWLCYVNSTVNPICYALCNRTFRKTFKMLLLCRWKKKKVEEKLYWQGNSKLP

[4] = target: T2, Amine oxidase [flavin-containing] A (Homo sapiens, UniProt P21397); experiment: DRUGMATRIX: Monoamine Oxidase MAO-A enzyme inhibition (substrate: Kynuramine); design: species or system BTI-TN-5B1-4; conditions: bti-tn-5b1-4; Not Active = under 50% inhibition at 10 µM
T2 sequence (P21397 whole entry): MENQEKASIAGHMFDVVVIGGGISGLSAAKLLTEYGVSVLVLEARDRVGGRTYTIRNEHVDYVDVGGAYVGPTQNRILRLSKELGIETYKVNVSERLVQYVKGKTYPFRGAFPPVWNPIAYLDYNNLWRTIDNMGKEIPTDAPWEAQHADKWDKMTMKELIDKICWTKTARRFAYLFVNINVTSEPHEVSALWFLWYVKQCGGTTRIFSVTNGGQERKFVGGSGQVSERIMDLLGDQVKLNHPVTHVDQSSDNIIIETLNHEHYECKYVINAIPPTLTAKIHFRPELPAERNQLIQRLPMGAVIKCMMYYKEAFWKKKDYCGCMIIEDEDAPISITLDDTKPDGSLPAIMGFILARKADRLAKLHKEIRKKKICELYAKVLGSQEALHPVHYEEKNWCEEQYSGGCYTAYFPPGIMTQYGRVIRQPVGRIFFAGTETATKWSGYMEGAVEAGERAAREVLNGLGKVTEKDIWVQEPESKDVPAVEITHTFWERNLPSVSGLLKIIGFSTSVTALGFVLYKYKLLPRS

[5] = target: Mitogen-activated protein kinase 14 (Homo sapiens, UniProt Q16539); design: species or system Escherichia coli;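 note: inhibition of p38alpha enzyme activity in a biochemical kinase assay, with myelin basic protein serving as substrate; in other assays of this panel Not Active means under 50% inhibition at 10 µM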
Sequence of Mitogen-activated protein kinase 14 (Q16539 whole entry): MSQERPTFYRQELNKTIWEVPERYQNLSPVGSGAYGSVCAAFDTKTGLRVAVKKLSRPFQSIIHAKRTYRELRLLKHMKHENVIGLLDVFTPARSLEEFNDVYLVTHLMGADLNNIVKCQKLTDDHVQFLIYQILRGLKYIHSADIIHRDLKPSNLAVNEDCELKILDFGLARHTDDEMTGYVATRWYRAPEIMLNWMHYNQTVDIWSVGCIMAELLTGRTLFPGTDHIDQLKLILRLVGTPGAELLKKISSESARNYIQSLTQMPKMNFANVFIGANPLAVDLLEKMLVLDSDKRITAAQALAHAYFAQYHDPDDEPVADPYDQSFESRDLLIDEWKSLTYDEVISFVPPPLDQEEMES

[6] = DRUGMATRIX: beta-Lactamase enzyme inhibition (substrate: Nitrocefin); design: species or system Bacillus cereus; conditions: Not Active = under 50% inhibition at 10 µM
Substance-K receptor = target: T3, Substance-K receptor (Homo sapiens, UniProt P21452); type: cell membranes, CHO, Membrane; conditions: cho; note: in other assays of this panel Not Active means under 50% inhibition at 10 µM
T3 sequence (P21452 whole entry): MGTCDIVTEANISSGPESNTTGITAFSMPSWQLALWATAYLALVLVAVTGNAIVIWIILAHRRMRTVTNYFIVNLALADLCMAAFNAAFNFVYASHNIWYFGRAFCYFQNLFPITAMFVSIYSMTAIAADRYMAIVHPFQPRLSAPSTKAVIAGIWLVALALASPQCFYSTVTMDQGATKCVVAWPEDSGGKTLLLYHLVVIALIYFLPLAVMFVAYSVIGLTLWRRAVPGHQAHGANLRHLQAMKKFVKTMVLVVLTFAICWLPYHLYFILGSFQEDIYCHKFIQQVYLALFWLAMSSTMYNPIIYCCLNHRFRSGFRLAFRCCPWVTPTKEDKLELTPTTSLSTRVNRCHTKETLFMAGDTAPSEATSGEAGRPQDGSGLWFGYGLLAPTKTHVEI

Question: With `CC(C(=O)O)c1cccc(C(=O)c2ccccc2)c1` (stereo not given) [KETOPROFEN] as the compound, how does the IC50 [1] read?
Answer: The IC50 was “Not Active”.

Question: And the Ki [1]?
Answer: Its Ki is “Not Active”.

Question: What about the IC50 [2] of the same compound?
Answer: Its IC50 is “Not Active”.

Question: What about the Ki [2] of the same compound?
Answer: Its Ki is “Not Active”.

Question: What about the IC50 [3] of the same compound?
Answer: Its IC50 is “Not Active”.

Question: What about the IC50 [4] of the same compound?
Answer: Its IC50 is “Not Active”.

Question: What about the IC50 [5] of the same compound?
Answer: Its IC50 is “Not Active”.

Question: And the IC50 [6]?
Answer: Its IC50 is “Not Active”.

Question: What about the Ki [6] of the same compound?
Answer: The Ki was “Not Active”.

Question: What about the IC50 (Substance-K receptor) of the same compound?
Answer: The IC50 was “Not Active”.

Question: For `Nc1ccn([C@@H]2CS[C@H](CO)O2)c(=O)n1` [LAMIVUDINE], which IC50 [1] is on record?
Answer: Its IC50 is “Not Active”.

Question: And the Ki [1]?
Answer: The Ki was “Not Active”.

Question: What about the IC50 [2] of the same compound?
Answer: The IC50 was “Not Active”.

Question: And the Ki [2]?
Answer: Its Ki is “Not Active”.

Question: What about the IC50 [3] of the same compound?
Answer: The IC50 was “Not Active”.

Question: What about the IC50 [4] of the same compound?
Answer: Its IC50 is “Not Active”.

Question: What about the IC50 [5] of the same compound?
Answer: The IC50 was “Not Active”.

Question: What about the IC50 [6] of the same compound?
Answer: Its IC50 is “Not Active”.

Question: And the Ki [6]?
Answer: Its Ki is “Not Active”.

Question: And the IC50 (Substance-K receptor)?
Answer: The IC50 was “Not Active”.

Question: With `O=S(=O)([O-])CCS.[Na+]` [MESNA] as the compound, how does the IC50 [1] read?
Answer: Its IC50 is “Not Active”.

Question: And the Ki [1]?
Answer: The Ki was “Not Active”.

Question: What about the IC50 [2] of the same compound?
Answer: Its IC50 is “Not Active”.

Question: And the Ki [2]?
Answer: Its Ki is “Not Active”.

Question: What about the IC50 [3] of the same compound?
Answer: The IC50 was “Not Active”.

Question: What about the IC50 [4] of the same compound?
Answer: Its IC50 is “Not Active”.

Question: What about the IC50 [5] of the same compound?
Answer: Its IC50 is “Not Active”.

Question: What about the IC50 [6] of the same compound?
Answer: The IC50 was “Not Active”.

Question: What about the Ki [6] of the same compound?
Answer: Its Ki is “Not Active”.

Question: What about the IC50 (Substance-K receptor) of the same compound?
Answer: The IC50 was “Not Active”.

Question: For `C#C[C@]1(O)CC[C@H]2[C@@H]3CCc4cc(OC)ccc4[C@H]3CC[C@@]21C` [MESTRANOL], which IC50 [1] is on record?
Answer: The IC50 was “Not Active”.

Question: What about the Ki [1] of the same compound?
Answer: Its Ki is “Not Active”.

Question: And the IC50 [2]?
Answer: The IC50 was “Not Active”.

Question: What about the Ki [2] of the same compound?
Answer: The Ki was “Not Active”.

Question: And the IC50 [3]?
Answer: The IC50 was “Not Active”.

Question: And the IC50 [4]?
Answer: The IC50 was “Not Active”.

Question: And the IC50 [5]?
Answer: The IC50 was “Not Active”.

Question: What about the IC50 [6] of the same compound?
Answer: The IC50 was “Not Active”.

Question: What about the Ki [6] of the same compound?
Answer: The Ki was “Not Active”.

Question: What about the IC50 (Substance-K receptor) of the same compound?
Answer: The IC50 was “Not Active”.

Question: Which results are given for `CC(=O)Nc1cccc(O)c1` [METACETAMOL]?
Answer: IC50 [1]: Not Active; Ki [1]: Not Active; IC50 [2]: Not Active; Ki [2]: Not Active; IC50 [3]: Not Active; IC50 [4]: Not Active; IC50 [5]: Not Active; IC50 [6]: Not Active; Ki [6]: Not Active; IC50 (Substance-K receptor): Not Active

Question: Which IC50 [1] does the source give for `Cc1ncc([N+](=O)[O-])n1CCO` [METRONIDAZOLE] here?
Answer: Its IC50 is “Not Active”.

Question: And the Ki [1]?
Answer: Its Ki is “Not Active”.

Question: And the IC50 [2]?
Answer: Its IC50 is “Not Active”.

Question: What about the Ki [2] of the same compound?
Answer: The Ki was “Not Active”.

Question: What about the IC50 [3] of the same compound?
Answer: The IC50 was “Not Active”.

Question: And the IC50 [4]?
Answer: Its IC50 is “Not Active”.

Question: And the IC50 [5]?
Answer: The IC50 was “Not Active”.

Question: And the IC50 [6]?
Answer: The IC50 was “Not Active”.

Question: What about the Ki [6] of the same compound?
Answer: The Ki was “Not Active”.

Question: And the IC50 (Substance-K receptor)?
Answer: The IC50 was “Not Active”.

Question: What does the source list for `CC(C)(C(=O)c1cccnc1)c1cccnc1` [METYRAPONE]?
Answer: IC50 [1]: Not Active; Ki [1]: Not Active; IC50 [2]: Not Active; Ki [2]: Not Active; IC50 [3]: Not Active; IC50 [4]: Not Active; IC50 [5]: Not Active; IC50 [6]: Not Active; Ki [6]: Not Active; IC50 (Substance-K receptor): Not Active

Question: Which results are given for `Oc1ccc(OCc2ccccc2)cc1` [MONOBENZONE]?
Answer: IC50 [1]: Not Active; Ki [1]: Not Active; IC50 [2]: Not Active; Ki [2]: Not Active; IC50 [3]: Not Active; IC50 [4]: Not Active; IC50 [5]: Not Active; IC50 [6]: Not Active; Ki [6]: Not Active; IC50 (Substance-K receptor): Not Active

Question: What does the source list for `CC(C)(Oc1ccc(C2CCCc3ccccc32)cc1)C(=O)O` (stereo not given) [NAFENOPIN]?
Answer: IC50 [1]: Not Active; Ki [1]: Not Active; IC50 [2]: Not Active; Ki [2]: Not Active; IC50 [3]: Not Active; IC50 [4]: Not Active; IC50 ([5]; read-out: IC50): 3.74 µM; IC50 [6]: Not Active; Ki [6]: Not Active; IC50 (Substance-K receptor): Not Active

Question: For `COc1ccc2cc([C@H](C)C(=O)O)ccc2c1` [NAPROXEN], which IC50 [1] is on record?
Answer: Its IC50 is “Not Active”.

Question: What about the Ki [1] of the same compound?
Answer: The Ki was “Not Active”.

Question: What about the IC50 [2] of the same compound?
Answer: The IC50 was “Not Active”.

Question: What about the Ki [2] of the same compound?
Answer: The Ki was “Not Active”.

Question: And the IC50 [3]?
Answer: Its IC50 is “Not Active”.

Question: What about the IC50 [4] of the same compound?
Answer: The IC50 was “Not Active”.

Question: And the IC50 [5]?
Answer: Its IC50 is “Not Active”.

Question: What about the IC50 [6] of the same compound?
Answer: Its IC50 is “Not Active”.

Question: And the Ki [6]?
Answer: Its Ki is “Not Active”.

Question: And the IC50 (Substance-K receptor)?
Answer: Its IC50 is “Not Active”.

Question: What does the source list for `CC(C)[C@H]1CC[C@H](C(=O)N[C@H](Cc2ccccc2)C(=O)O)CC1` [NATEGLINIDE]?
Answer: IC50 [1]: Not Active; Ki [1]: Not Active; IC50 [2]: Not Active; Ki [2]: Not Active; IC50 [3]: Not Active; IC50 [4]: Not Active; IC50 [5]: Not Active; IC50 [6]: Not Active; Ki [6]: Not Active; IC50 (Substance-K receptor): Not Active
